Target: T1, rat metabotropic glutamate receptor 5 (mGluR5) (Rattus norvegicus, UniProt P31424)
T1 construct: expressed in transfected cells; host or cells: HEK 293
Experiment: Calcium mobilization assay (FLIPR) for negative or positive allosteric activity, HEK 293 cells
Assay type: cell-based
Conditions: HEK293, negative allosteric modulation, inhibition of EC80 glutamate response; read-out: FLIPR maximum inhibition
Method in brief: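 Peak Fluo-4 calcium signal over 3 min at room temperature, minus basal, fitted by Hill equation, in stable rat mGluR5 HEK 293 cells (HBSS/HEPES pH 7.4, BSA, probenecid). Inhibition scored against EC80 glutamate, potentiation against EC20 glutamate, glutamate given with compound.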

T1 sequence (P31424 21-1171 isoform P31424-2 limits assumed): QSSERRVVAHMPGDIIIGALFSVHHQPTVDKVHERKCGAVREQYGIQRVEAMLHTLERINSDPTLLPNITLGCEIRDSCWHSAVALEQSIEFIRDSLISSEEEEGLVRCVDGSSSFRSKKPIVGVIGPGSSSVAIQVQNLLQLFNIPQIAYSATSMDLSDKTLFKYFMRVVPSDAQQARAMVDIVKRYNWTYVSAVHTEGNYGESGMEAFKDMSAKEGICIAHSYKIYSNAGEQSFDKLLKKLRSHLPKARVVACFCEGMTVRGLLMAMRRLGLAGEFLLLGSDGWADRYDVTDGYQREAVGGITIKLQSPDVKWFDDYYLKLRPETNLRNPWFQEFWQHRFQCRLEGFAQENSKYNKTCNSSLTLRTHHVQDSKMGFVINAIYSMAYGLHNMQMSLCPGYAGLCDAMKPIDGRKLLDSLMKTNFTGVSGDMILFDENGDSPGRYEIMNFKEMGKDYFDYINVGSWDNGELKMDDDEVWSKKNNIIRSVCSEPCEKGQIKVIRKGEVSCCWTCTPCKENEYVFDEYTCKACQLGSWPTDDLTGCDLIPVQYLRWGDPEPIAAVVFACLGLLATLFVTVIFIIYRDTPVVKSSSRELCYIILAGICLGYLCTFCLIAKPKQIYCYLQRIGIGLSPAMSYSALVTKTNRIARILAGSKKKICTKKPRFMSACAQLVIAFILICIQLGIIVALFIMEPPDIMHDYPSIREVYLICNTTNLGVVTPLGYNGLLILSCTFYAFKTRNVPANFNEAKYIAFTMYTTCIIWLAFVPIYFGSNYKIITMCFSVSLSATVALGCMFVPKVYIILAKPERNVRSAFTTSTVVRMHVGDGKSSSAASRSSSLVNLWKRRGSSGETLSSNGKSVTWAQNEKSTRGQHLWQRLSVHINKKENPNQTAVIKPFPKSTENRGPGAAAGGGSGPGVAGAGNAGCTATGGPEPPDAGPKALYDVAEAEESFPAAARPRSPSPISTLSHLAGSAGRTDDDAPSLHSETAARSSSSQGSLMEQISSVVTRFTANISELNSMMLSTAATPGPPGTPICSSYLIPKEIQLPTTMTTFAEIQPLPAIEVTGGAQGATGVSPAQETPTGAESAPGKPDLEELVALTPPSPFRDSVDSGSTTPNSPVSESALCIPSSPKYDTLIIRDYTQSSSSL

Emax | SMILES
90 to 99% | O=C(NC12CC3CC(C1)CC(NC(=O)c1ccccn1)(C3)C2)c1cccc(Cl)c1 [Example 6, Pyridine-2-carboxylic acid [3-(3-chloro-benzoylamino)-adamantan-1-yl]-amide]
63 to 99% | Cc1cncc(C(=O)NC23CC4CC(CC(NC(=O)c5cncc(Cl)c5)(C4)C2)C3)n1 [Example 170, 6-Methyl-pyrazine-2-carboxylic acid {3-[(5-chloro-pyridine-3-carbonyl)-amino]-adamantan-1-yl}-amide]
70 to 99% | COc1ccnc(C(=O)NC23CC4CC(C2)CC(NC(=O)c2cncc(C)n2)(C4)C3)c1 [Example 153, 6-Methyl-pyrazine-2-carboxylic acid {3-[(4-methoxy-pyridine-2-carbonyl)-amino]-adamantan-1-yl}-amide]
63 to 99% | Cc1ccn2cc(C(=O)NC34CC5CC(CC(NC(=O)c6cccc(F)c6)(C5)C3)C4)nc2c1 [Example 104, 7-Methyl-imidazo[1,2-a]pyridine-2-carboxylic acid [3-(3-fluoro-benzoylamino)-adamantan-1-yl]-amide]
63 to 99% | Cc1cc(C(=O)NC23CC4CC(CC(NC(=O)c5ccccn5)(C4)C2)C3)no1 [Example 73, Pyridine-2-carboxylic acid {3-[(5-methyl-isoxazole-3-carbonyl)-amino]-adamantan-1-yl}-amide]
63 to 99% | O=C(NC12CC3CC(C1)CC(NC(=O)c1cn4cc(Cl)ccc4n1)(C3)C2)c1cccc(F)c1 [Example 98, 6-Chloro-imidazo[1,2-a]pyridine-2-carboxylic acid [3-(3-fluoro-benzoylamino)-adamantan-1-yl]-amide]
70 to 99% | CCOc1cc(C(=O)NC23CC4CC(C2)CC(NC(=O)c2cncc(C)n2)(C4)C3)ccn1 [Example 155, 6-Methyl-pyrazine-2-carboxylic acid {3-[(2-ethoxy-pyridine-4-carbonyl)-amino]-adamantan-1-yl}-amide]
63 to 99% | Cc1cccc(C(=O)NC23CC4CC(C2)CC(NC(=O)c2cccc(Cl)n2)(C4)C3)n1 [Example 57, 6-Chloro-pyridine-2-carboxylic acid {3-[(6-methyl-pyridine-2-carbonyl)-amino]-adamantan-1-yl}-amide]
63 to 99% | O=C(NC12CC3CC(C1)CC(NC(=O)c1cccs1)(C3)C2)c1ccccn1 [Example 75, Pyridine-2-carboxylic acid {3-[(thiophene-2-carbonyl)-amino]-adamantan-1-yl}-amide]
63 to 99% | Cc1cccc(C(=O)NC23CC4CC(C2)CC(NC(=O)c2cccc(N(C)CCN(C)C)n2)(C4)C3)n1 [Example 204, 6-[(2-Dimethylamino-ethyl)-methyl-amino]-pyridine-2-carboxylic acid{3-[(6-methyl-pyridine-2-carbonyl)-amino]-adamantan-1-yl}-amide]
70 to 99% | Cc1cccc(C(=O)NC23CC4CC(C2)CC(NC(=O)c2cccc(CO)n2)(C4)C3)n1 [Example 134, 6-Methyl-pyridine-2-carboxylic acid {3-[(6-hydroxymethylpyridine-2-carbonyl)-amino]-adamantan-1-yl}-amide]
63 to 99% | Cc1cccc(C(=O)NC23CC4CC(C2)CC(NC(=O)c2ccc5cccnc5n2)(C4)C3)n1 [Example 27, [1,8]Naphthyridine-2-carboxylic acid {3-[(6-methyl-pyridine-2-carbonyl)-amino]-adamantan-1-yl}-amide]
63 to 99% | O=C(NC12CC3CC(C1)CC(NC(=O)c1ccc4ccccc4n1)(C3)C2)c1ccc2ccccc2n1 [Example 12, N,N′-(1,3-adamantylene)bis(quinoline-2-carboxamide)]
63 to 99% | COCCNc1cccc(C(=O)NC23CC4CC(CC(NC(=O)c5cccc(C)n5)(C4)C2)C3)n1 [Example 235]
63 to 99% | O=C(NC12CC3CC(C1)CC(NC(=O)c1nccc(C(F)(F)F)n1)(C3)C2)c1ccncn1 [Example 196, 4-Trifluoromethyl-pyrimidine-2-carboxylic acid {3-[(pyrimidine-4-carbonyl)-amino]-adamantan-1-yl}-amide]
90 to 99% | N#Cc1cccc(C(=O)NC23CC4CC(C2)CC(NC(=O)c2cccc(C#N)c2)(C4)C3)c1 [Example 5, N,N′-(1,3-adamantylene)bis(3-cyano-benzamide)]

Emax | SMILES
63 to 99% | Cc1cccc(C(=O)NC23CC4CC(C2)CC(NC(=O)c2c5ccccc5nn2C)(C4)C3)n1 [Example 49, 2-Methyl-2H-indazole-3-carboxylic acid {3-[(6-methyl-pyridine-2-carbonyl)-amino]-adamantan-1-yl}-amide]
63 to 99% | Cc1ccnc(C(=O)NC23CC4CC(CC(NC(=O)c5cccc(F)c5)(C4)C2)C3)n1 [Example 182, 4-Methyl-pyrimidine-2-carboxylic acid [3-(3-fluoro-benzoylamino)-adamantan-1-yl]-amide]
63 to 99% | O=C(NC12CC3CC(C1)CC(NC(=O)c1ccccn1)(C3)C2)c1ccn2ccnc2c1 [Example 87, Imidazo[1,2-a]pyridine-7-carboxylic acid {3-[(pyridine-2-carbonyl)-amino]-adamantan-1-yl}-amide]
70 to 99% | Cc1cccc(C(=O)NC23CC4CC(CC(NC(=O)c5ccc6c(c5)OCCO6)(C4)C2)C3)n1 [Example 124, 6-Methyl-pyridine-2-carboxylic acid {3-[(2,3-dihydro-benzo[1,4]dioxine-6-carbonyl)-amino]-adamantan-1-yl}-amide]
70 to 99% | CC(=O)c1cccc(C(=O)NC23CC4CC(CC(NC(=O)c5cccc(C)n5)(C4)C2)C3)n1 [Example 142, 6-Methyl-pyridine-2-carboxylic acid {3-[(6-acetyl-pyridine-2-carbonyl)-amino]-adamantan-1-yl}-amide]
63 to 99% | CN(C)CCCNc1cccc(C(=O)NC23CC4CC(CC(NC(=O)c5cccc(F)c5)(C4)C2)C3)n1 [Example 247, 6-(3-Dimethylamino-propylamino)-pyridine-2-carboxylic acid [3-(3-fluoro-benzoylamino)-adamantan-1-yl]-amide]
63 to 99% | COc1ccc(C(=O)NC23CC4CC(C2)CC(NC(=O)c2ccccn2)(C4)C3)cc1 [Example 81, Pyridine-2-carboxylic acid [3-(4-methoxy-benzoylamino)-adamantan-1-yl]-amide]
63 to 99% | Cc1cccc(C(=O)NC23CC4CC(C2)CC(NC(=O)C2CC(F)(F)C2)(C4)C3)n1 [Example 47, 6-Methyl-pyridine-2-carboxylic acid {3-[(3,3-difluoro-cyclobutanecarbonyl)-amino]-adamantan-1-yl}-amide]
70 to 99% | Cc1ccc(C(=O)NC23CC4CC(C2)CC(NC(=O)c2cccc(C)n2)(C4)C3)nc1 [Example 130, 6-Methyl-pyridine-2-carboxylic acid {3-[(5-methyl-pyridine-2-carbonyl)-amino]-adamantan-1-yl}-amide]
63 to 99% | O=C(NC12CC3CC(C1)CC(NC(=O)c1ccncn1)(C3)C2)c1ccccn1 [Example 60, Pyrimidine-4-carboxylic acid {3-[(pyridine-2-carbonyl)-amino]-adamantan-1-yl}-amide]
63 to 99% | Cc1nccc(C(=O)NC23CC4CC(CC(NC(=O)c5ccc(F)cn5)(C4)C2)C3)n1 [Example 191, 2-Methyl-pyrimidine-4-carboxylic acid {3-[(5-fluoro-pyridine-2-carbonyl)-amino]-adamantan-1-yl}-amide]
70 to 99% | Cc1cccc(C(=O)NC23CC4CC(CC(NC(=O)c5cc(Br)ccn5)(C4)C2)C3)n1 [Example 138, 6-Methyl-pyridine-2-carboxylic acid {3-[(4-bromo-pyridine-2-carbonyl)-amino]-adamantan-1-yl}-amide]
90 to 99% | N#Cc1cccc(C(=O)NC23CC4CC(C2)CC(NC(=O)c2ccccn2)(C4)C3)c1 [Example 7, Pyridine-2-carboxylic acid[3-(3-cyano-benzoylamino)-adamantan-1-yl]-acid]
63 to 99% | O=C(NC12CC3CC(C1)CC(NC(=O)c1cccc(NCCCO)n1)(C3)C2)c1cccc(F)c1 [Example 214, 6-(3-Hydroxy-propylamino)-pyridine-2-carboxylic acid [3-(3-fluoro-benzoylamino)-adamantan-1-yl]-amide]
63 to 99% | NC(=O)[C@@H]1CCCN1c1cccc(C(=O)NC23CC4CC(CC(NC(=O)c5ccccn5)(C4)C2)C3)n1 [Example 230, 6-((S)-2-Carbamoyl-pyrrolidin-1-yl)-pyridine-2-carboxylic acid {3-[(pyridine-2-carbonyl)-amino]-adamantan-1-yl}-amide]
63 to 99% | O=C(NC12CC3CC(C1)CC(NC(=O)c1cccc(N4CCOCC4)n1)(C3)C2)c1cccc(F)c1 [Example 215, 6-Morpholin-4-yl-pyridine-2-carboxylic acid [3-(3-fluoro-benzoylamino)-adamantan-1-yl]-amide]

Source: patent US8716284B2, “Adamantyl diamide derivatives and uses of same” (H. Lundbeck A/S, priority 2008, dated 2014)
